Source: PubChem BioAssay AID1963872 (Molecular Pharmacology Branch, DTP, NCI, 2024)

System: KRAS patient-derived spheroids with HUVEC/MSC, viability
Experiment: Anticancer human tumor 519858-162-T-J1-PDC patient-derived colon adenocarcinoma cell line growth inhibition [KRAS2]
Settings: for IC50: curve of first compound; for viability, T/C: stronger effect = lower value
Summary of the method: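 KRAS-mutant tumor cells were grown as spheroids with HUVEC endothelial cells and human MSCs as stroma. Targeted agents were tested alone and with KRAS pathway inhibitors. Doses started at or near clinical Cmax, or 10 microM, descending half-log.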

[1] = second compound 0.1 µM, first compound 0.0316 µM
[2] = second compound 0.1 µM, first compound 0.1 µM
[3] = second compound 0.1 µM, first compound 0.316 µM
[4] = second compound 0.1 µM, first compound 1 µM
[5] = second compound 0.1 µM, first compound 3.16 µM
[6] = second compound 0.1 µM, first compound 10 µM
[7] = second compound 0.316 µM, first compound 0.0316 µM
[8] = second compound 0.316 µM, first compound 0.1 µM
[9] = second compound 0.316 µM, first compound 0.316 µM
[10] = second compound 0.316 µM, first compound 1 µM
[11] = second compound 0.316 µM, first compound 3.16 µM
[12] = second compound 0.316 µM, first compound 10 µM
[13] = second compound 1 µM, first compound 0.0316 µM
[14] = second compound 1 µM, first compound 0.1 µM
[15] = second compound 1 µM, first compound 0.316 µM
[16] = second compound 1 µM, first compound 1 µM
[17] = second compound 1 µM, first compound 3.16 µM
[18] = second compound 1 µM, first compound 10 µM
[19] = second compound 3.16 µM, first compound 0.0316 µM
[20] = second compound 3.16 µM, first compound 0.1 µM
[21] = second compound 3.16 µM, first compound 0.316 µM
[22] = second compound 3.16 µM, first compound 1 µM
[23] = second compound 3.16 µM, first compound 3.16 µM
[24] = second compound 3.16 µM, first compound 10 µM
[25] = second compound 10 µM, first compound 0.0316 µM
[26] = second compound 10 µM, first compound 0.1 µM
[27] = second compound 10 µM, first compound 0.316 µM
[28] = second compound 10 µM, first compound 1 µM
[29] = second compound 10 µM, first compound 3.16 µM
[30] = second compound 10 µM, first compound 10 µM
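Note: compound exposure lasted seven days before readout.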
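Throughout, for viability, T/C: 100% = DMSO vehicle control viability.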

SMILES: CC(C)NCC(C(=O)N1CCN(c2ncnc3c2C(C)CC3O)CC1)c1ccc(Cl)cc1 (stereo not given) + CNCc1ccccc1-c1csc(C(C)Nc2nc(C)nc3cc(OC)c(OC)cc23)c1
- IC50 (second compound 0.1 µM): > 10 µM
- IC50 (second compound 0.316 µM): > 10 µM
- IC50 (second compound 1 µM): > 10 µM
- IC50 (second compound 3.16 µM): 3.88 µM
- IC50 (second compound 10 µM): < 0.0316 µM
- viability, T/C [1]: 88.2%
- viability, T/C [2]: 81.7%
- viability, T/C [3]: 94.9%
- viability, T/C [4]: 93.7%
- viability, T/C [5]: 89.2%
- viability, T/C [6]: 88%
- viability, T/C [7]: 88.5%
- viability, T/C [8]: 91.6%
- viability, T/C [9]: 76.3%
- viability, T/C [10]: 88.1%
- viability, T/C [11]: 92.5%
- viability, T/C [12]: 93.1%
- viability, T/C [13]: 81.7%
- viability, T/C [14]: 76.2%
- viability, T/C [15]: 71.1%
- viability, T/C [16]: 73%
- viability, T/C [17]: 85.2%
- viability, T/C [18]: 79.9%
- viability, T/C [19]: 42.8%
- viability, T/C [20]: 59.8%
- viability, T/C [21]: 60%
- viability, T/C [22]: 58.3%
- viability, T/C [23]: 47.7%
- viability, T/C [24]: 43.8%
- viability, T/C [25]: 0.36%
- viability, T/C [26]: 0.39%
- viability, T/C [27]: 0.34%
- viability, T/C [28]: 0.3%
- viability, T/C [29]: 0.82%
- viability, T/C [30]: 0.78%

SMILES: Cn1nccc1Nc1nccc(-c2cc3c(s2)C(C)(C)N(CCN2CCOCC2)C3=O)n1 + COc1cc2nc(C)nc(NC(C)c3cc(N)cc(C(F)(F)F)c3)c2cc1OC1CCOC1
- IC50 (second compound 0.1 µM): 4.15 µM
- IC50 (second compound 0.316 µM): 2.18 µM
- IC50 (second compound 1 µM): 1.76 µM
- IC50 (second compound 3.16 µM): 0.488 µM
- IC50 (second compound 10 µM): 1.27 µM
- viability, T/C [1]: 98.2%
- viability, T/C [2]: 73.5%
- viability, T/C [3]: 83.4%
- viability, T/C [4]: 59.7%
- viability, T/C [5]: 67.8%
- viability, T/C [6]: 30.3%
- viability, T/C [7]: 77.9%
- viability, T/C [8]: 89.5%
- viability, T/C [9]: 65%
- viability, T/C [10]: 70.8%
- viability, T/C [11]: 40.6%
- viability, T/C [12]: 23.2%
- viability, T/C [13]: 82.1%
- viability, T/C [14]: 80.7%
- viability, T/C [15]: 52.8%
- viability, T/C [16]: 72.5%
- viability, T/C [17]: 36.3%
- viability, T/C [18]: 25.9%
- viability, T/C [19]: 60.4%
- viability, T/C [20]: 74.3%
- viability, T/C [21]: 46.5%
- viability, T/C [22]: 46.7%
- viability, T/C [23]: 24.4%
- viability, T/C [24]: 23%
- viability, T/C [25]: 55.7%
- viability, T/C [26]: 59.2%
- viability, T/C [27]: 59.1%
- viability, T/C [28]: 58.8%
- viability, T/C [29]: 18.5%
- viability, T/C [30]: 14.3%

SMILES: CC(=O)Nc1cccc(-n2c(=O)n(C3CC3)c(=O)c3c(Nc4ccc(I)cc4F)n(C)c(=O)c(C)c32)c1 + COc1cc2nc(C)nc(NC(C)c3cc(N)cc(C(F)(F)F)c3)c2cc1OC1CCOC1
- IC50 (second compound 0.1 µM): 0.00246 µM
- IC50 (second compound 0.316 µM): 0.00201 µM
- IC50 (second compound 1 µM): 0.00101 µM
- IC50 (second compound 3.16 µM): 0.000275 µM
- IC50 (second compound 10 µM): 0.000203 µM
- viability, T/C (second compound 0.1 µM, first compound 0.0001 µM): 83.3%
- viability, T/C (second compound 0.1 µM, first compound 0.000316 µM): 74.2%
- viability, T/C (second compound 0.1 µM, first compound 0.001 µM): 65%
- viability, T/C (second compound 0.1 µM, first compound 0.00316 µM): 39.6%
- viability, T/C (second compound 0.1 µM, first compound 0.01 µM): 36.1%
- viability, T/C [1]: 12.5%
- viability, T/C (second compound 0.316 µM, first compound 0.0001 µM): 64.8%
- viability, T/C (second compound 0.316 µM, first compound 0.000316 µM): 85.2%
- viability, T/C (second compound 0.316 µM, first compound 0.001 µM): 73.8%
- viability, T/C (second compound 0.316 µM, first compound 0.00316 µM): 34.7%
- viability, T/C (second compound 0.316 µM, first compound 0.01 µM): 24.2%
- viability, T/C [7]: 13.8%
- viability, T/C (second compound 1 µM, first compound 0.0001 µM): 72.2%
- viability, T/C (second compound 1 µM, first compound 0.000316 µM): 59.3%
- viability, T/C (second compound 1 µM, first compound 0.001 µM): 53.1%
- viability, T/C (second compound 1 µM, first compound 0.00316 µM): 33.6%
- viability, T/C (second compound 1 µM, first compound 0.01 µM): 18.5%
- viability, T/C [13]: 11%
- viability, T/C (second compound 3.16 µM, first compound 0.0001 µM): 67.8%
- viability, T/C (second compound 3.16 µM, first compound 0.000316 µM): 46.3%
- viability, T/C (second compound 3.16 µM, first compound 0.001 µM): 30.6%
- viability, T/C (second compound 3.16 µM, first compound 0.00316 µM): 27.7%
- viability, T/C (second compound 3.16 µM, first compound 0.01 µM): 11.9%
- viability, T/C [19]: 8.2%
- viability, T/C (second compound 10 µM, first compound 0.0001 µM): 69.2%
- viability, T/C (second compound 10 µM, first compound 0.000316 µM): 32.2%
- viability, T/C (second compound 10 µM, first compound 0.001 µM): 31.9%
- viability, T/C (second compound 10 µM, first compound 0.00316 µM): 6.2%
- viability, T/C (second compound 10 µM, first compound 0.01 µM): 4.93%
- viability, T/C [25]: 3.59%
